Data from ChEMBL document CHEMBL1122718, “Benzylamines: synthesis and evaluation of antimycobacterial properties” (1984).

The molecules below were run on Mycolicibacterium smegmatis (assay: Minimum inhibitory concentration (MIC) of compound against Mycobacterium smegmatis ATCC 607).
Format: functional

`CCCCNCc1cc(F)cc(F)c1.Cl` was tested, and the MIC was 32 mg/L.

Each molecule was assayed on Mycobacterium lufu (assay: Minimum inhibitory concentration (MIC) of compound against Mycobacterium lufu L 209).
Format: functional

With `CCCCNCc1cc(F)cc(F)c1.Cl` the MIC was 8 mg/L.

The molecules below were run on Mycobacterium tuberculosis (assay: Compound was evaluated for the minimum inhibitory concentration (MIC) against Mycobacterium tuberculosis H 37 Rv).
Format: functional

`CCCCNCc1cccc(F)c1.Cl` gave an MIC of 30 mg/L.

These molecules were tested on Mycobacterium marinum (assay: Minimum inhibitory concentration (MIC) of compound against Mycobacterium marinum SN 1254).
Format: functional

Work on `CCCCNCc1cc(F)cc(F)c1.Cl` yielded an MIC of 6 mg/L.

These molecules were tested on Mycobacterium avium (assay: Minimum inhibitory concentration (MIC) of compound against Mycobacterium avium SN 304).
Format: functional

Molecule `CCCCNCc1cc(F)cc(F)c1.Cl` has an MIC of 3 mg/L.

These molecules were tested on Mycobacterium tuberculosis (assay: Minimum inhibitory concentration (MIC) of compound against Mycobacterium tuberculosis H 37 Rv).
Format: functional

Molecule `CCCCNCc1cc(F)cc(F)c1.Cl` has an MIC of 4 mg/L.

The molecules below were run on Mycobacterium tuberculosis (assay: Minimum inhibitory concentration (MIC) against Mycobacterium tuberculosis H 37 Ra).
Format: functional

`CCCCNCc1cccc(Cl)c1.Cl` and `CCCCCNCc1cccc(Cl)c1.Cl` are within 1.5-fold of each other in MIC: 64 mg/L for the first, 51.2 mg/L for the second.

`CNCc1ccc(Cl)c(C(F)(F)F)c1.Cl` and `CCNCc1ccc(Cl)c(C(F)(F)F)c1.Cl` cannot be ordered by MIC: > 256 mg/L for the first, > 256 mg/L for the second.

`Cl.NCc1ccc(Cl)c(C(F)(F)F)c1` and `CCCNCc1ccc(Cl)c(C(F)(F)F)c1.Cl` cannot be ordered by MIC: > 256 mg/L for the first, > 256 mg/L for the second.

`CCCNCc1cccc(Br)c1.Cl` and `CCCCNCc1cccc(Br)c1.Cl` are within 1.5-fold of each other in MIC: 51.2 mg/L for the first, 38.4 mg/L for the second.

`CCCCNCc1ccc(Cl)c(Cl)c1.Cl` and `CCCNCc1ccc(Cl)c(Cl)c1.Cl` cannot be ordered by MIC: > 256 mg/L for the first, > 256 mg/L for the second.

`CCCCNCc1ccccc1Cl.Cl` and `CCCCNCc1ccccc1Br.Cl` cannot be ordered by MIC: > 256 mg/L for the first, > 256 mg/L for the second.

`CCNCc1ccc(Cl)c(Cl)c1.Cl` and `CNCc1ccc(Cl)c(Cl)c1.Cl` cannot be ordered by MIC: > 256 mg/L for the first, > 256 mg/L for the second.

Compared with `CNCc1cccc(I)c1.Cl`, `CCNCc1cccc(I)c1.Cl` is higher in MIC: 154 mg/L for the first, > 256 mg/L for the second.

Compared with `CNCc1cc(F)cc(Cl)c1.Cl`, `CCNCc1cc(F)cc(Cl)c1.Cl` is 1.7-fold higher in MIC: 19.2 mg/L for the first, 32 mg/L for the second.

`CCCNCc1ccc(Cl)cc1Cl.Cl` and `CCCCNCc1ccc(Cl)cc1Cl.Cl` cannot be ordered by MIC: > 256 mg/L for the first, > 256 mg/L for the second.

`CC(C)NCc1cccc(Cl)c1.Cl` and `CC(C)NCc1cccc(F)c1.Cl` cannot be ordered by MIC: > 256 mg/L for the first, > 256 mg/L for the second.

First: CNCc1cccc(F)c1.Cl
Second: CCNCc1cccc(F)c1.Cl
The MIC of the first is 2.7-fold lower: 19.2 mg/L for the first, 51.2 mg/L for the second.

`Cl.NCc1cccc(C(F)(F)F)c1` and `CNCc1cccc(C(F)(F)F)c1.Cl` cannot be ordered by MIC: > 256 mg/L for the first, > 256 mg/L for the second.

First: CCCNCc1cc(Cl)cc([N+](=O)[O-])c1.Cl
Second: CCCCNCc1cc(Cl)cc([N+](=O)[O-])c1.Cl
The MIC of the first is 2-fold lower: 102 mg/L for the first, 205 mg/L for the second.

First: Cl.NCc1cc(F)cc(Cl)c1
Second: Cl.NCc1cc(F)cc(F)c1
The MIC of the first is 1.8-fold lower: 32 mg/L for the first, 57.6 mg/L for the second.

`CCNCc1ccc(OC)cc1.Cl` and `CCCNCc1ccc(OC)cc1.Cl` cannot be ordered by MIC: > 256 mg/L for the first, > 256 mg/L for the second.

`CNCc1ccc(OC)cc1.Cl` and `COc1ccc(CN)cc1.Cl` cannot be ordered by MIC: > 256 mg/L for the first, > 256 mg/L for the second.

`CC(C)NCc1cccc(C(F)(F)F)c1.Cl` and `CCNCc1cccc(C(F)(F)F)c1.Cl` cannot be ordered by MIC: > 256 mg/L for the first, > 256 mg/L for the second.

`CCNCc1ccc(Cl)cc1Cl.Cl` and `CCNCc1cc(Cl)ccc1Cl.Cl` cannot be ordered by MIC: > 256 mg/L for the first, > 256 mg/L for the second.

`CCCNCc1cccc([N+](=O)[O-])c1.Cl` and `CCCCNCc1cccc([N+](=O)[O-])c1.Cl` cannot be ordered by MIC: > 256 mg/L for the first, > 256 mg/L for the second.

`CNCc1cc(Cl)ccc1Cl.Cl` and `CNCc1ccc(Cl)cc1Cl.Cl` cannot be ordered by MIC: > 256 mg/L for the first, > 256 mg/L for the second.

`CNCc1cc(F)cc(F)c1.Cl` and `CCNCc1cc(F)cc(F)c1.Cl` are within 1.5-fold of each other in MIC: 32 mg/L for the first, 44.8 mg/L for the second.

`CCCCNCc1cccc(C(F)(F)F)c1.Cl` and `CCCCCNCc1cccc(C(F)(F)F)c1.Cl` cannot be ordered by MIC: > 256 mg/L for the first, > 256 mg/L for the second.

`CCCCNCc1cc(Cl)ccc1Cl.Cl` and `CCCNCc1cc(Cl)ccc1Cl.Cl` cannot be ordered by MIC: > 256 mg/L for the first, > 256 mg/L for the second.

`CCCCNCc1c(Cl)cccc1Cl.Cl` and `CCCNCc1c(Cl)cccc1Cl.Cl` cannot be ordered by MIC: > 256 mg/L for the first, > 256 mg/L for the second.

Going from `CCNCc1cccc([N+](=O)[O-])c1.Cl` to `CNCc1cccc([N+](=O)[O-])c1.Cl`, the MIC falls from > 256 mg/L to 256 mg/L.

Going from `Cl.NCc1cccc(Br)c1` to `Cl.NCc1cccc(I)c1`, the MIC rises from 32 mg/L to 179 mg/L (5.6-fold).

`CCCCCCNCc1ccccc1.Cl` and `CCCCCCCNCc1ccccc1.Cl` cannot be ordered by MIC: > 256 mg/L for the first, > 256 mg/L for the second.

First: CCCCNCc1ccccc1.Cl
Second: CCCCCNCc1ccccc1.Cl
The MIC of the first is 3-fold lower: 51.2 mg/L for the first, 154 mg/L for the second.

Going from `CCNCc1ccccc1Br.Cl` to `CCNCc1ccccc1.Cl`, the MIC falls from > 256 mg/L to 205 mg/L.

`CCCNCc1ccc(C(F)(F)F)cc1.Cl` and `CCCCNCc1ccc(C(F)(F)F)cc1.Cl` cannot be ordered by MIC: > 256 mg/L for the first, > 256 mg/L for the second.

First: CCCCCNCc1cc(Cl)cc(Cl)c1.Cl
Second: CCCCNCc1cc(Cl)cc(Cl)c1.Cl
The MIC of the first is 2-fold higher: 128 mg/L for the first, 64 mg/L for the second.

`CCCNCc1cccc(F)c1.Cl` and `CCCCNCc1cccc(F)c1.Cl` are the same in MIC: 25.6 mg/L for the first, 25.6 mg/L for the second.

`CNCc1ccc(C(F)(F)F)cc1.Cl` and `CCNCc1ccc(C(F)(F)F)cc1.Cl` cannot be ordered by MIC: > 256 mg/L for the first, > 256 mg/L for the second.

Compared with `Cl.NCc1ccc(Cl)cc1Cl`, `Cl.NCc1cc(Cl)ccc1Cl` is lower in MIC: > 256 mg/L for the first, 76.8 mg/L for the second.

`CCNCc1cc(Cl)cc(Cl)c1.Cl` and `CCCNCc1cc(Cl)cc(Cl)c1.Cl` are within 1.5-fold of each other in MIC: 17.9 mg/L for the first, 20.4 mg/L for the second.

Compared with `Cl.N#Cc1cccc(CN)c1`, `CNCc1cccc(C#N)c1.Cl` is 2.5-fold lower in MIC: 128 mg/L for the first, 51.2 mg/L for the second.

`CCCCNCc1cc(F)cc(Cl)c1.Cl` and `CCCNCc1cc(F)cc(Cl)c1.Cl` are within 1.5-fold of each other in MIC: 19.2 mg/L for the first, 25.6 mg/L for the second.

`CCCCNCc1cccc(I)c1.Cl` and `CCCNCc1cccc(I)c1.Cl` are within 1.5-fold of each other in MIC: 205 mg/L for the first, 256 mg/L for the second.

First: CC(C)NCc1cccc(C#N)c1.Cl
Second: CCNCc1cccc(C#N)c1.Cl
The MIC of the first is higher: > 256 mg/L for the first, 102 mg/L for the second.

`CNCc1ccc(Cl)cc1.Cl` and `CNCc1ccc(Br)cc1.Cl` cannot be ordered by MIC: > 256 mg/L for the first, > 256 mg/L for the second.

`CCCCCNCc1cccc(C#N)c1.Cl` and `CCCCNCc1cccc(C#N)c1.Cl` are within 1.5-fold of each other in MIC: 76.8 mg/L for the first, 51.2 mg/L for the second.

Compared with `CNCc1ccccc1.Cl`, `CCCNCc1ccccc1.Cl` is 2-fold lower in MIC: 102 mg/L for the first, 51.2 mg/L for the second.

Compared with `CCCCCNCc1cccc([N+](=O)[O-])c1.Cl`, `CCCCCNCc1cccc(F)c1.Cl` is lower in MIC: > 256 mg/L for the first, 51.2 mg/L for the second.

`Cl.NCc1ccc(C(F)(F)F)cc1` and `CCCNCc1cccc(C(F)(F)F)c1.Cl` cannot be ordered by MIC: > 256 mg/L for the first, > 256 mg/L for the second.

Compared with `Cl.NCc1cccc([N+](=O)[O-])c1`, `CC(C)NCc1cccc([N+](=O)[O-])c1.Cl` is higher in MIC: 179 mg/L for the first, > 256 mg/L for the second.

`CCNCc1c(Cl)cccc1Cl.Cl` and `CNCc1c(Cl)cccc1Cl.Cl` cannot be ordered by MIC: > 256 mg/L for the first, > 256 mg/L for the second.

`CCCCNCc1ccc(Br)cc1.Cl` and `CCCCNCc1ccc(Cl)cc1.Cl` cannot be ordered by MIC: > 256 mg/L for the first, > 256 mg/L for the second.

Compared with `CCCNCc1cccc(C#N)c1.Cl`, `CCCNCc1cccc(Cl)c1.Cl` is 4.3-fold lower in MIC: 76.8 mg/L for the first, 17.9 mg/L for the second.

`Cl.NCc1ccccc1` and `Cl.NCc1cccc(F)c1` are within 1.5-fold of each other in MIC: 76.8 mg/L for the first, 51.2 mg/L for the second.

First: CNCc1ccccc1Cl.Cl
Second: CNCc1cccc(Br)c1.Cl
The MIC of the first is higher: > 256 mg/L for the first, 19.2 mg/L for the second.

`Cl.NCc1c(Cl)cccc1Cl` and `Cl.NCc1ccc(Cl)c(Cl)c1` cannot be ordered by MIC: > 256 mg/L for the first, > 256 mg/L for the second.

`CNCc1cc(Cl)cc([N+](=O)[O-])c1.Cl` and `CCNCc1cc(Cl)cc([N+](=O)[O-])c1.Cl` are within 1.5-fold of each other in MIC: 128 mg/L for the first, 102 mg/L for the second.

Going from `CCCCNCc1ccc(Cl)c(C(F)(F)F)c1.Cl` to `CCCCNCc1cc(F)cc(F)c1.Cl`, the MIC falls from > 256 mg/L to 6.4 mg/L.

`Cl.NCc1cc(Cl)cc(Cl)c1` and `Cl.NCc1cccc(Cl)c1` are within 1.5-fold of each other in MIC: 20.4 mg/L for the first, 17.9 mg/L for the second.

Compared with `CCCNCc1cc(F)cc(F)c1.Cl`, `CCCCCNCc1cc(F)cc(F)c1.Cl` is 1.7-fold higher in MIC: 19.2 mg/L for the first, 32 mg/L for the second.

Compared with `CCCCCCCNCc1cc(Cl)cc(Cl)c1.Cl`, `CCCCCCCCNCc1ccccc1.Cl` [BENZYL(OCTYL)AMINE HYDROCHLORIDE] is higher in MIC: 154 mg/L for the first, > 256 mg/L for the second.

Going from `CCNCc1cccc(Br)c1.Cl` to `CCNCc1cccc(Cl)c1.Cl`, the MIC falls from 64 mg/L to 25.6 mg/L (2.5-fold).
